According to US20080318970A1, “Treatment of Infectious Diseases” (priority 2004, published 2008):

Legend:
E. coli, LN 3164 [1] = test: MIC susceptibility test, microdilution broth method (NCCLS), chemosensitising compound alone; assay type: cell-based; conditions: 37° C., 16 h
Procedure: Bacteria were sub-cultured on Mueller-Hinton agar plates and incubated over night at 37° C. Pre-warmed Mueller-Hinton broth was inoculated with colonies from the plate and incubated for approximately three hours to achieve a log phase culture. The log phase culture of bacteria was diluted with fresh pre-warmed medium and adjusted to a defined Optical Density (OD) at 600 nm in order to give a final assay concentration of 1×10^4 bacteria/ml medium.
Cell growth was tested using the MIC susceptibility tests by use of the microdilution broth method in accordance to the NCCLS Guidelines (NCCLS Guidelines, Methods for Dilution Antimicrobial Susceptibility Tests for Bacteria That Grow Aerobically; Approved Standard, Sixth Edition, Volume 23; Number 2). A 100% Mueller-Hinton broth and a bacterial concentration of 1×10^4/ml were used.
A log phase culture of bacteria was diluted with fresh pre-warmed medium and adjusted to a defined OD at 600 nm in order to give a final concentration of 1×10^4 bacteria/ml medium in each well. Each chemosensitising compound was added to the bacterial culture in the wells in two-fold dilutions in order to give final concentrations ranging from 8 to 500 μg/ml. Trays were incubated at 37° C. for 16 h. Minimal Inhibitory Concentration, (MIC) is defined as the lowest inhibitory concentration showing no visible growth according to the NCCLS Guidelines.

E. coli, LN 3164 [2] = test: Effect of chemosensitising compounds on DR (DR ratio) with ciprofloxacin, microtiter assay; assay type: cell-based; conditions: for DR ratio: MIC ciprofloxacin alone / MIC ciprofloxacin + chemosensitising compound at ¼ of its MIC
Procedure: The effects of the chemosensitising compounds on DR were studied by the microtiter assay described above by exposing cells to 0-64 μg/ml anti-infective drug in the absence or presence of chemosensitising compound. Each experiment was repeated in tripleduplicate. MIC values represent the mean values of two separate experiments.
A log phase culture of bacteria was diluted with fresh pre-warmed medium and adjusted to a defined OD at 600 nm in order to give a final concentration of 1×10^4 bacteria/ml medium in each well. […] Anti-infective agent was added to the bacterial culture in the wells in two-fold dilutions in order to give final concentrations ranging from 0 to 64 μg/ml. Trays were incubated at 37° C. for 16 h. The DR ratio was defined as the ratio between the MIC value for anti-infective agent alone divided by the MIC for the anti-infective agent in the presence of the chemosensitising compound. This ratio represents the increase in apparent potency of the anti-infective agent caused by the chemosensitising compound, and may be expressed as
DR ratio=(MICanti-infective agent)/(MICanti-infective agent+chemosensitising compound)

E. faecalis F84 = test: Checkerboard combination study (FIC index); assay type: cell-based, Enterococcus faecalis; conditions: for FIC index: MDR isolate
Procedure: Enterococcus faecalis, F84. A multidrug resistant clinical isolate.
(§1) The synergistic effect was studied by checkerboard combination studies exposing cells to 0-64 μg/ml anti-infective agent in the absence or presence of trans-flupenthixol, cis-flupenthixol or trans-clopenthixol. Each experiment was repeated in tripleduplicate. MIC values represent the mean values of two separate experiments,
A log phase culture of bacteria was diluted with fresh pre-warmed medium and adjusted to a defined OD at 600 nm in order to give a final concentration of 1×10^4 bacteria/ml medium in each well. […] Anti-infective agent was added to the bacterial culture in the wells in two-fold dilutions in order to give final concentrations ranging from 0 to 64 μg/ml Trays were incubated at 37° C. for 16 h. Wells were assessed visually for growth. The Fractional Inhibitory Concentration (FIC) was calculated for each anti-infective agent alone and in combination with trans-flupenthixol, cis-flupenthixol or trans-clopenthixol. The following formulae were used to calculate the FIC index:
(§2) FIC=FICchemosensitising compound+FICanti-infective agent
(§3) FICchemosensitising compound=(MICchemosensitising compound+anti-infective agent)/(MICchemosensitising compound)
(§4) FICanti-infective agent=(MICanti-infective agent+chemosensitising compound/(MICanti-Infective agent)
(§5) Synergy was defined as a FIC index of <0.5.

E. faecalis F86 = test: Checkerboard combination study (FIC index); assay type: cell-based, Enterococcus faecalis; conditions: anti-infective agent Dicloxacillin; isolate susceptible (S)
Procedure: Enterococcus faecalis, F86. Susceptible clinical isolate. No development of resistance.
as §1
(§6) A log phase culture of bacteria was diluted with fresh pre-warmed medium and adjusted to a defined OD at 600 nm in order to give a final concentration of 1×10^4 bacteria/ml medium in each well. Each chemosensitising compound was added to the bacterial culture in the wells in two-fold dilutions in order to give final concentrations ranging from 0 to 8 μg/ml. Anti-infective agent was added to the bacterial culture in the wells in two-fold dilutions in order to give final concentrations ranging from 0 to 64 μg/ml Trays were incubated at 37° C. for 16 h. Wells were assessed visually for growth. The Fractional Inhibitory Concentration (FIC) was calculated for each anti-infective agent alone and in combination with trans-flupenthixol, cis-flupenthixol or trans-clopenthixol. The following formulae were used to calculate the FIC index:
as §2, §3, §4, §5

S. aureus E45 = test: Checkerboard combination study (FIC index); assay type: cell-based, Staphylococcus aureus; conditions: isolate resistant (R)
Procedure: Staphylococcus aureus E45 MRSA. Clinical isolate. Resistant to methicillin. Susceptible to teicoplanin chloramphenicol, fosfomycin, netilmicin and vancomycin.
as §1, §6, §2, §3, §4, §5

S. aureus O11 = test: Checkerboard combination study (FIC index); assay type: cell-based, Staphylococcus aureus; conditions: anti-infective agent Dicloxacillin; isolate susceptible (S)
Procedure: Staphylococcus aureus O11. Clinical isolate resistant to penicillin. Susceptible to methicillin, tetracycline, beta-lactams, fluoroquinolones, chloramphenicol and aminoglycosides.
as §1, §6, §2, §3, §4, §5

E. coli LN 3164 = test: Checkerboard combination study (FIC index); assay type: cell-based; conditions: MDR isolate
Procedure: E. coli, LN 3164. Acr AB-ToIC MDR in vitro-selected mutant. Resistant to tetracycline, beta-lactams, fluoroquinolones, chloramphenicol and aminoglycosides.
as §1, §6, §2, §3, §4, §5

E. coli 331ME = test: Checkerboard combination study (FIC index); assay type: cell-based; conditions: MDR isolate
Procedure: E. coli 331 ME. In vivo-selected multidrug resistant clinical isolates of E. coli. Strains were isolated from a patient with severe cystitis/urosepsis. Resistant to tetracycline, beta-lactams, fluoroquinolones, chloramphenicol and aminoglycosides.
as §1, §6, §2, §3, §4, §5

P. aeruginosa 432b = test: Checkerboard combination study (FIC index); assay type: cell-based; conditions: isolate resistant (R)
Procedure: P. aeruginosa 432b. Clinical multidrug resistant isolate. Resistant to tetracycline, beta-lactams, fluoroquinolones, and aminoglycosides. Beta-lactamase producing, changes in Penicillin Binding Proteins and changes in Outer Membrane Proteins.
as §1, §6, §2, §3, §4, §5

[3] = clinical trial versus placebo, Johnstone et al.; cited from earlier work
[4] = tested on: non-resistant mouse pathogen isolate of Streptococcus pneumoniae; conditions: Kristiansen et al. 1998; cited from earlier work
[5] = anti-infective agent Dicloxacillin
[6] = anti-infective agent Fucidic acid
[7] = anti-infective agent Ciprofloxacin
[8] = anti-infective agent Gentamicin
[9] = anti-infective agent Piperacillin

CC(CN1c2ccccc2Sc2ccccc21)N(C)C (stereo not drawn) [Promethazine, promethazine]
MIC (E. coli, LN 3164 [1]): 64 µg/mL
DR ratio (E. coli, LN 3164 [2]; E. coli LN 3164): 8

CSc1ccc2c(c1)N(CCCN(C)C)c1ccccc1S2 [Thiomethylpromazine, thiomethylpromazine]
MIC (E. coli, LN 3164 [1]): 32 µg/mL
DR ratio (E. coli, LN 3164 [2]; E. coli LN 3164): 4

CN1CCN(CCCN2c3ccccc3Sc3ccc(C(F)(F)F)cc32)CC1 [Trifluoperazine, trifluoperazine]
MIC (E. coli, LN 3164 [1]): 16 µg/mL
DR ratio (E. coli, LN 3164 [2]; E. coli LN 3164): 16

CN(C)CCCN1c2ccccc2Sc2ccc(C(F)(F)F)cc21 [Trifluopromazine, trifluopromazine]
MIC (E. coli, LN 3164 [1]): 32 µg/mL
DR ratio (E. coli, LN 3164 [2]; E. coli LN 3164): 8

CN(C)CCCN1c2ccccc2[S+]([O-])c2ccc(Cl)cc21 (stereo not drawn) [chlorpromazine sulfoxide]
activity against drug resistance (in words) (E. coli, LN 3164 [2]; E. coli LN 3164, ciprofloxacin): same activity against drug resistance as did chlorpromazine

CN(C)CCCN1c2ccccc2Sc2ccc(Cl)cc21 [chlorpromazine]
MIC (E. coli, LN 3164 [1]): 32 µg/mL
sensitised drug resistant cells to ciprofloxacin by (E. coli, LN 3164 [2]; E. coli LN 3164, ciprofloxacin): 220%
DR ratio (E. coli, LN 3164 [2]; E. coli LN 3164): 4
increase in anti-DR activity, tertiary versus secondary amine (E. coli, LN 3164 [2]; chlorpromazine versus desmethylchlorpromazine): 1.6 fold

OCCN1CCN(CC/C=C2/c3ccccc3Sc3ccc(C(F)(F)F)cc32)CC1 [cis-flupenthixol, reference compound]
MIC (E. coli, LN 3164 [1]): 32 µg/mL
DR ratio (E. coli, LN 3164 [2]; E. coli LN 3164): 32
FIC index (E. faecalis F84; [5]): 0.13
FIC index (E. faecalis F84; anti-infective agent Vanomycin): 0.25
FIC index (E. faecalis F86): 0.50
FIC index (S. aureus E45; [5]): 0.25
FIC index (S. aureus E45; [6]): 0.26
FIC index (S. aureus O11): 0.50
FIC index (E. coli LN 3164; [7]): 0.25
FIC index (E. coli LN 3164; [8]): 0.25
FIC index (E. coli LN 3164; [9]): 0.25
FIC index (E. coli 331ME; [7]): 0.013
FIC index (E. coli 331ME; [8]): 0.06
FIC index (E. coli 331ME; [9]): 0.25
FIC index (P. aeruginosa 432b; [7]): 0.06
FIC index (P. aeruginosa 432b; [8]): 0.13
FIC index (P. aeruginosa 432b; [9]): 0.25
anti-psychotic effect (in words) [3]: potent neuroleptic

OCCN1CCN(CC/C=C2\c3ccccc3Sc3ccc(C(F)(F)F)cc32)CC1 [trans-flupenthixol]
MIC (E. coli, LN 3164 [1]): 32 µg/mL
DR ratio (E. coli, LN 3164 [2]; E. coli LN 3164): 64
FIC index (E. faecalis F84; [5]): 0.06
FIC index (E. faecalis F84; anti-infective agent Vanomycin): 0.13
FIC index (E. faecalis F86): 0.50
FIC index (S. aureus E45; [5]): 0.13
FIC index (S. aureus E45; [6]): 0.13
FIC index (S. aureus O11): 0.50
FIC index (E. coli LN 3164; [7]): 0.13
FIC index (E. coli LN 3164; [8]): 0.063
FIC index (E. coli LN 3164; [9]): 0.13
FIC index (E. coli 331ME; [7]): 0.006
FIC index (E. coli 331ME; [8]): 0.02
FIC index (E. coli 331ME; [9]): 0.13
FIC index (P. aeruginosa 432b; [7]): 0.03
FIC index (P. aeruginosa 432b; [8]): 0.06
FIC index (P. aeruginosa 432b; [9]): 0.13
anti-psychotic effect (in words) [3]: no activity as an anti-psychotic

CN[C@H](CC(C)C)C(=O)N[C@H]1C(=O)N[C@@H](CC(N)=O)C(=O)N[C@H]2C(=O)N[C@H]3C(=O)N[C@H](C(=O)N[C@H](C(=O)O)c4cc(O)cc(O)c4-c4cc3ccc4O)[C@H](O)c3ccc(c(Cl)c3)Oc3cc2cc(c3O[C@@H]2O[C@H](CO)[C@@H](O)[C@H](O)[C@H]2O[C@H]2C[C@](C)(N)[C@H](O)[C@H](C)O2)Oc2ccc(cc2Cl)[C@H]1O [vancomycin, reference compound]
MIC value (E. faecalis F84; E. faecalis F84 cultivated in the presence of vancomycin at 4 μg/ml): 4 μ/ml

penicillin
MIC [4]: 0.02 µg/mL
